Test results taken from patent US7419790B2, “Sodium-independent transporter carrying acidic amino acid and its gene” (J-Pharma Co., Ltd, priority 2002, dated 2008).

Experiments:
[1] = biological target: T1, AGT1-4F2hc fusion protein (Mus musculus, UniProt P10852+Q91WN3); experiment: Inhibition of 14C-aspartic acid uptake by added amino acids and analogues, oocytes expressing AGT1-4F2hc; assay type: cell-based; settings: 2 mM non-labeled compound, 14C-aspartic acid 20 μM, sodium-free uptake solution
T1 sequence (Q91WN3+P10852 with tags, fused parts or gaps): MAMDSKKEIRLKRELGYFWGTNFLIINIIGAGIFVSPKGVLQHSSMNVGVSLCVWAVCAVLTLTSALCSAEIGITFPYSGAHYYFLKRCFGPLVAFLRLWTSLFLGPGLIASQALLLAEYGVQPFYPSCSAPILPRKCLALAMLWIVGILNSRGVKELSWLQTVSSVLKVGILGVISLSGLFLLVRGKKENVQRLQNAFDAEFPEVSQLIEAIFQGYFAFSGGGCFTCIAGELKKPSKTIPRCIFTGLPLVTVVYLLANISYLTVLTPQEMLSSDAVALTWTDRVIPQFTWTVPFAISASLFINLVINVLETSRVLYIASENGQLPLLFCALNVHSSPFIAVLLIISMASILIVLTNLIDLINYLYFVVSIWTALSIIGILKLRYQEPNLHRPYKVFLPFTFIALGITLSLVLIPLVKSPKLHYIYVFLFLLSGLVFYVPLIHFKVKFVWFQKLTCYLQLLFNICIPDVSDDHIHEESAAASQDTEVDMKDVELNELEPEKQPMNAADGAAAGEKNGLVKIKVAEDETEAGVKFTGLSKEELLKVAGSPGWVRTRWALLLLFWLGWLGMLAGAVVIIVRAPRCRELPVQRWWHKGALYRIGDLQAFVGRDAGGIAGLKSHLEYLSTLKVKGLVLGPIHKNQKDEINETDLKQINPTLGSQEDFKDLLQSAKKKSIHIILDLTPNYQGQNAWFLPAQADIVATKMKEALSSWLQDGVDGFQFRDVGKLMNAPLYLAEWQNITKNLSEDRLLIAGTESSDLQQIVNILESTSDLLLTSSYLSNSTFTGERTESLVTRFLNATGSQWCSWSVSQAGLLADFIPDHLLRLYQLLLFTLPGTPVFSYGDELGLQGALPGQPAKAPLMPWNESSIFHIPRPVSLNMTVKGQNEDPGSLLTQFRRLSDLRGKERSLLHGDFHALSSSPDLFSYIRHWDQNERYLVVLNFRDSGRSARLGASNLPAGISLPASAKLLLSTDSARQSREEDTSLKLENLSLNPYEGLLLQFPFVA
Protocol: However, a sodium-free uptake solution was used and the uptake ^14C-aspartic acid (20 μM) was measured in the presence and absence of 2 mM of various compounds (non-labeled).

[2] = biological target: T1, AGT1-4F2hc fusion protein; experiment: Uptake of radio-labeled amino acids by oocytes expressing AGT1-4F2hc; assay type: cell-based; settings: oocyte injected with AGT1-4F2hc cRNA, 14C compound as substrate
From the text: With regard to a substrate, various compounds which were labeled with radioactivity were used instead of ^14C-aspartic acid.

AGT1-rBAT fusion protein = biological target: T2, AGT1-rBAT fusion protein (Mus musculus, UniProt Q91WN3+Q91WV7); experiment: Uptake of 14C-aspartic acid by oocytes expressing AGT1-rBAT; assay type: cell-based; settings: oocyte injected with AGT1-rBAT cRNA; 14C-aspartic acid 20 μM, 30 minutes, compared with water-injected control
T2 construct: expressed in transfected cells; host or cells: oocyte injected with AGT1-rBAT fusion protein gene cRNA
T2 sequence (Q91WN3+Q91WV7 with tags, fused parts or gaps): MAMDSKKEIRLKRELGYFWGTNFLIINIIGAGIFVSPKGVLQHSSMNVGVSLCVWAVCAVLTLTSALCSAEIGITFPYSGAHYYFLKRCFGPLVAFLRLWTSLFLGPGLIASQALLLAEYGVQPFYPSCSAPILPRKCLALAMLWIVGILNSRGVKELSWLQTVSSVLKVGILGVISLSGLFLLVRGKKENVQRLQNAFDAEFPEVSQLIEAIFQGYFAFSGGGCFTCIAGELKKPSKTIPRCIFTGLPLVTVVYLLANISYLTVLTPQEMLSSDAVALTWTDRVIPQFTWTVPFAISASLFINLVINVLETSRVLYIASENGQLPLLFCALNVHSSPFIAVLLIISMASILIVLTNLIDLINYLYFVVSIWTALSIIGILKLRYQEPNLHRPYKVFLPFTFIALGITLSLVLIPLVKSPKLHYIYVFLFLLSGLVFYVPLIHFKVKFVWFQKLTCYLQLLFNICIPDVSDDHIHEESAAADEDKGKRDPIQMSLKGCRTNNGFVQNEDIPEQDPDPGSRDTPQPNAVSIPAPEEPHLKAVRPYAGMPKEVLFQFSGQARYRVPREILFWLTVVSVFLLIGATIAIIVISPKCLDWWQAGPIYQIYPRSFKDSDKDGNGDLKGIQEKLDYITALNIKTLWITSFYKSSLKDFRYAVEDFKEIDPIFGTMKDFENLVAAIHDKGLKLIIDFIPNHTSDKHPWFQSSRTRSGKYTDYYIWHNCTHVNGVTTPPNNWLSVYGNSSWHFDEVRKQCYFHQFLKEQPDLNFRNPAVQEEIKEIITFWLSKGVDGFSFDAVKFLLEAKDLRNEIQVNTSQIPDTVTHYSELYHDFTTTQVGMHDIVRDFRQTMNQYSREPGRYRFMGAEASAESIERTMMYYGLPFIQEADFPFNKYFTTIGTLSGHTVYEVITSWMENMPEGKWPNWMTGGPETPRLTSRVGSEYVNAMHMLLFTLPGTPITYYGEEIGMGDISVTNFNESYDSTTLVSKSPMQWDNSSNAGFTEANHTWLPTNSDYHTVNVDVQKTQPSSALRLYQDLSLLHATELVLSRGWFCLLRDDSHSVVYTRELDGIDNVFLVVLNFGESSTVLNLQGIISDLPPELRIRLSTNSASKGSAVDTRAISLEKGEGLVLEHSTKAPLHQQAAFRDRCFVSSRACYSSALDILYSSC

[3] = biological target: T1, AGT1-4F2hc fusion protein; experiment: Michaelis-Menten kinetic analysis of substrate uptake by oocytes expressing AGT1-4F2hc; settings: AGT1-4F2hc in oocytes; ratio to Vmax value of L-aspartic acid; mean value ± standard error
Protocol: (§1) The oocyte were allowed to stand for 30 minutes in a sodium-free uptake solution (100 mM choline chloride, 2 mM potassium chloride, 1.8 mM calcium chloride, 1 mM magnesium chloride and 5 mM HEPES; pH 7.4) containing ^14 C-aspartic acid (20 μM) as a substrate and an uptake rate of the substrate was measured by the count of radioactivity incorporated into the cells.
(§2) The Michaelis-Menten kinetic analysis was conducted by investigating the change in the ratio of uptake of aspartic acid by the difference in the substrate aspartic acid concentration.
(§3) The aspartic acid uptake experiment was carried according to the method mentioned in the above Example 2(2) using the oocyte into which a cRNA of a gene of a fusion protein of AGT1 with 4F2hc or with rBAT (AGT1-4F2hc or AGT1-rBAT) was injected.
(§4) The Michaelis-Menten kinetic analysis was similarly carried out in a fusion protein of AGT1 with 4F2hc (AGT1-4F2hc) in glutamic acid and Km value and Vmax value were calculated.
N[C@@H](CCC(=O)O)C(=O)O = experiment: cells, lysate or membranes; settings: other: substrate transport by AGT1-4F2hc in Xenopus oocytes, sodium-free uptake solution; mean value ± standard error; pH 7.4
Protocol: as §1, §2, §3, §4

[4] = substrate: N[C@@H](CC(=O)O)C(=O)O; experiment: cells, lysate or membranes; settings: other: AGT1-rBAT in Xenopus oocytes; pH 7.4

Molecule | effect on uptake of 14C-aspartic acid mediated by AGT1-4F2hc (cis-inhibition) [1] | also measured
O=C(O)[C@@H]1CN[C@@H](C(=O)O)C1 (relative stereo) [L-trans-pyrrolidine-2,4-dicarboxylate] | no inhibition effect | 
NC1(C(=O)O)CC2CCC1C2 (stereo not drawn) [2-amino-2-norbornane-carboxylic acid] | did no affect | 
N[C@H](CC(=O)O)C(=O)O [D-aspartic acid] | did no affect | 
N[C@H](CCC(=O)O)C(=O)O [D-glutamic acid] | did no affect | 
N[C@@H](CC(=O)O)C(=O)O [L-Aspartic acid] | significant cis-inhibiting effect | uptake of radio-labeled substrate into the oocyte ([2]; listed as L-aspartic acid): substantial uptake; uptake of radio-labeled substrate into the oocyte ([2]; listed as aspartic acid): higher uptake; uptake of aspartic acid into the oocyte (AGT1-rBAT fusion protein): higher uptake; Vmax [3]: (1.00)
N[C@@H](CCC(=O)O)C(=O)O [L-Glutamic acid] | significant cis-inhibiting effect | uptake of radio-labeled substrate into the oocyte [2]: substantial uptake; Vmax [3]: 0.63 ± 0.10
N[C@@H](CS(=O)(=O)O)C(=O)O [L-cysteate] | strongly inhibited | 
N[C@@H](CS)C(=O)O.O=S(=O)(O)O [L-cysteine sulfate] | strongly inhibited | 
N[C@@H](CCS(=O)(=O)O)C(=O)O [L-homocysteate] | no inhibition effect | 
N[C@@H](COS(=O)(=O)O)C(=O)O [L-serine-O-sulfate] | strongly inhibited | 
N[C@@H](CCCC(=O)O)C(=O)O [L-α-aminoadipate] | no inhibition effect | 
N[C@@H](CS)C(=O)O [cysteine] | significant cis-inhibiting effect | 
N[C@@H](CSSC[C@H](N)C(=O)O)C(=O)O [cystine] | did no affect | 
CC(C)[C@H]1CN[C@H](C(=O)O)[C@H]1CC(=O)O [dihydrokainate] | no inhibition effect | 
NC(C(=O)O)C(O)C(=O)O (stereo not drawn) [threo-β-hydroxyaspartate] | strongly inhibited | 
AGT1-4F2hc fusion protein (Mus musculus) |  | Km (N[C@@H](CCC(=O)O)C(=O)O): 21.8 ± 6.5 µM
γ-aminoisobutyric acid | did no affect | 
AGT1-rBAT fusion protein (Mus musculus) (protein) MAMDSKKEIRLKRELGYFWGTNFLIINIIGAGIFVSPKGVLQHSSMNVGVSLCVWAVCAVLTLTSALCSAEIGITFPYSGAHYYFLKRCFGPLVAFLRLWTSLFLGPGLIASQALLLAEYGVQPFYPSCSAPILPRKCLALAMLWIVGILNSRGVKELSWLQTVSSVLKVGILGVISLSGLFLLVRGKKENVQRLQNAFDAEFPEVSQLIEAIFQGYFAFSGGGCFTCIAGELKKPSKTIPRCIFTGLPLVTVVYLLANISYLTVLTPQEMLSSDAVALTWTDRVIPQFTWTVPFAISASLFINLVINVLETSRVLYIASENGQLPLLFCALNVHSSPFIAVLLIISMASILIVLTNLIDLINYLYFVVSIWTALSIIGILKLRYQEPNLHRPYKVFLPFTFIALGITLSLVLIPLVKSPKLHYIYVFLFLLSGLVFYVPLIHFKVKFVWFQKLTCYLQLLFNICIPDVSDDHIHEESAAADEDKGKRDPIQMSLKGCRTNNGFVQNEDIPEQDPDPGSRDTPQPNAVSIPAPEEPHLKAVRPYAGMPKEVLFQFSGQARYRVPREILFWLTVVSVFLLIGATIAIIVISPKCLDWWQAGPIYQIYPRSFKDSDKDGNGDLKGIQEKLDYITALNIKTLWITSFYKSSLKDFRYAVEDFKEIDPIFGTMKDFENLVAAIHDKGLKLIIDFIPNHTSDKHPWFQSSRTRSGKYTDYYIWHNCTHVNGVTTPPNNWLSVYGNSSWHFDEVRKQCYFHQFLKEQPDLNFRNPAVQEEIKEIITFWLSKGVDGFSFDAVKFLLEAKDLRNEIQVNTSQIPDTVTHYSELYHDFTTTQVGMHDIVRDFRQTMNQYSREPGRYRFMGAEASAESIERTMMYYGLPFIQEADFPFNKYFTTIGTLSGHTVYEVITSWMENMPEGKWPNWMTGGPETPRLTSRVGSEYVNAMHMLLFTLPGTPITYYGEEIGMGDISVTNFNESYDSTTLVSKSPMQWDNSSNAGFTEANHTWLPTNSDYHTVNVDVQKTQPSSALRLYQDLSLLHATELVLSRGWFCLLRDDSHSVVYTRELDGIDNVFLVVLNFGESSTVLNLQGIISDLPPELRIRLSTNSASKGSAVDTRAISLEKGEGLVLEHSTKAPLHQQAAFRDRCFVSSRACYSSALDILYSSC |  | Km [4]: 20.1 ± 6.1 µM
